According to patent EP0197661A2, “Low-calorie sugar composition” (Takeda Chemical Industries, Ltd., priority 1985, dated 1986):
Marks after values point to notes of the source that are not given here.

Test system: Male rats (Jcl:SD strain)
Test: Oral sucrose loading in fasted rats with varying dosage of AO-128; blood glucose level
Type: in vivo
Settings: rats fasted 20 hours, mean ± standard deviation
Experimental: Male rats (Jcl:SD strain, purchased from Clea Japan) aged 6 weeks, which had been raised on commercially available pelleted rat chow (CE-2®, Clea Japan), were fasted for 20 hours and, then, administered orally with 2.5 g/kg of sucrose containing a varying dosage of AO-128. The blood glucose level was determined 30, 60 and 120 minutes after administration.

[1] = AO-128 0.1mg/Kg with 2.5 g/kg sucrose orally
[2] = AO-128 0.2mg/Kg with 2.5 g/kg sucrose orally
[3] = AO-128 0.4mg/Kg with 2.5 g/kg sucrose orally

OCC(CO)N[C@H]1C[C@](O)(CO)[C@@H](O)[C@H](O)[C@H]1O [AO-128, N-(l,3-dihydroxy-2-propyl)valiolamine]
Blood glucose level 0 min. [1]: 69 ± 4 mg/dL
Blood glucose level 60 min. [1]: 101±2^a mg/dℓ
Blood glucose level 120 min. [1]: 88±3^a mg/dℓ
Delta glucose area [1]: 52±5^b mg/dℓ·hr
Blood glucose level 30 min. [2]: 102±6^b mg/dℓ
Delta glucose area [2]: 38±7^a mg/dℓ·hr
Blood glucose level 0 min. [3]: 67 ± 4 mg/dL
Blood glucose level 30 min. [3]: 79±2^a mg/dℓ
Blood glucose level 60 min. [3]: 77±5^a mg/dℓ
Blood glucose level 120 min. [3]: 71±5^a mg/dℓ
